The nature of this data set: Human HepG2 cell viability assay in 384 well format. Format: toxicity, cell-based. Further details: dose 125 nL, time 70.5 hour; cytotoxicity at 70.5 h: concentration not given beside the values. The note with it: HepG2 cells, read-out: Inhibition.

For `O=C(NCCC1CCN(CC(F)(F)F)CC1)C1CCCOC1` (stereo not given), the cytotoxicity at 70.5 h turned out to be 3.94%.

As for `CN(CCc1nccs1)C(=O)CC1(O)CCCCC1`, the cytotoxicity at 70.5 h is -5.26%. In the case of `N#CCCN(Cc1ccccn1)Cn1cc(Cl)cn1`, the cytotoxicity at 70.5 h came to 29.9%. The value for `CCSCCC(C)N(C)C(=O)c1ccc2nncn2c1` (stereo not given) was -4.21%. The value for `Cn1cc(S(=O)(=O)NC(=O)C2(c3cccc(Cl)c3)CC2)cn1` was -10.1%; that for `CCN1CCC(CNC(=O)Nc2cnn(CC(N)=O)c2)C1` (stereo not given) was -8.69%; that for `NC(=O)Cn1cc(NC(=O)NCC2CCN(c3ccccc3)C2)cn1` (stereo not given) was -8.01%. The value for `Cc1nn(CCC#N)c(C)c1CCC(=O)N(C(C)C)C1CC1` was -10.9%. With `CC(C)C(=O)Nc1ccc(Sc2nncn2C)c(Cl)c1`, the cytotoxicity at 70.5 h was -16%. Regarding `O=C(O)c1ccc(OC2CCOCC2)cc1`, the cytotoxicity at 70.5 h was -3.72%. The value for `CCOc1cc(C(=O)N2CC=C(c3ccc(O)cc3)CC2)ccn1` was -14.3%; that for `Cc1nc(C2CCCN(c3ncc(Br)cn3)C2)no1` (stereo not given) was -13.9%; that for `Cc1ccc(F)c(OC2CCCN(c3cnn(C)c3)C2=O)c1` (stereo not given) was -3.77%.

With `Cn1cc(N2CCCC(Oc3ccc(F)cc3Cl)C2=O)cn1` (stereo not given), the cytotoxicity at 70.5 h is -4.99%.

Regarding `CCOc1cccnc1C(=O)N1CC=C(c2ccc(O)cc2)CC1`, the cytotoxicity at 70.5 h was -7.65%. The value for `Cc1noc(-c2ccnc(N3CCC(N4CCCC4)CC3)c2)n1` was -8.66%. The value for `Cc1ccc(CC(=O)Nc2ccc(CS(C)(=O)=O)c(F)c2)cc1` was -2.59%; that for `CN1CC(Nc2nc3c(cnn3-c3ccccc3)c(=O)[nH]2)CCC1=O` (stereo not given) was -10.2%.

In the case of `CCCOC1CCCN(C(=O)c2[nH]nc(C)c2Br)C1` (stereo not given), the cytotoxicity at 70.5 h is -8.95%.

Take `CSCC(C)(O)CNc1cccc(F)c1C(C)=O` (stereo not given): the cytotoxicity at 70.5 h was -5.74%. Take `CC(C)C(C)(O)CNc1cccc(F)c1C#N` (stereo not given): the cytotoxicity at 70.5 h is -7.64%. Turning to `COCCCn1ccc(NC(=O)NCCCn2ccnc2)n1`, the cytotoxicity at 70.5 h was -18.9%. The value for `CCCNC(=O)Nc1ccn(CCCOC)n1` was 9.71%; that for `CC(C)COC(C)C(=O)N1CCC(C)CC1` (stereo not given) was 3.43%. The value for `COc1ccccc1C(C)(C)NCc1ccco1` was -19.1%; that for `CC(C)(C)CC(=O)Nc1ccc(S(C)(=O)=O)nc1` was -6.59%; that for `CC1CCCCN1S(=O)(=O)NCc1cccnc1OC1CCCC1` (stereo not given) was -2.43%. The value for `O=C(Nc1ccc(Cn2cccn2)cc1)N1CCC(CO)CC1` was -5.76%; that for `O=C(Nc1ccc(Cn2cccn2)cc1)N1CCC2(CC1)OCCO2` was 22.5%. `O=C(C[S+]([O-])Cc1cccc(Cl)c1)NC1CCCC1` (stereo not given): the cytotoxicity at 70.5 h was -3.67%. The value for `Cc1noc(OCCOc2cccc(C#N)c2)n1` was -3.56%; that for `CCN1CCN(c2ccc(C(=O)NC(C)c3ccncc3)cc2)CC1` (stereo not given) was 6.23%; that for `O=C(NCCCO)Nc1cccc(C[S+]([O-])c2ccccc2)c1` (stereo not given) was -6.37%.

As to `CS(=O)(=O)NCC1(c2ccccc2Br)CC1`, the cytotoxicity at 70.5 h was -5.81%. The value for `CCN1CCN(c2ccc(C(=O)NC(C)CCOC)cc2)CC1` (stereo not given) was 23.2%. The value for `CN(C)S(=O)(=O)NCC1(c2ccccc2Br)CC1` was 13.4%; that for `COc1ccc(-c2ccc(C(=O)NS(C)(=O)=O)c(F)c2)c(F)c1` was -6.13%. The value for `Cc1nn(C)c(C)c1NC(=O)CNc1cccc(CC(F)(F)F)c1` was -1.15%; that for `Cc1ccc(C(F)(F)F)cc1NCC(=O)Nc1c(C)nn(C)c1C` was 11.3%; that for `Cn1c(=O)oc2ccc(Nc3ncc(C#N)cc3Cl)cc21` was -2.37%. `NC(=O)CN1CCCC1c1ccccc1Br` (stereo not given): the cytotoxicity at 70.5 h was determined as 7.42%. The value for `CNC(=O)CCN1CCCC1c1ccccc1Br` (stereo not given) was 28%; that for `Cn1c(=O)oc2cc(Nc3ncc(C#N)cc3Cl)ccc21` was -4.36%; that for `CC1(C)CN(CC(F)(F)F)CCN1CC(N)=O` was -3.8%. The value for `CN(Cc1cncs1)C1CCN(C(=O)OC(C)(C)C)CC1` was -8.3%; that for `Cc1cc(N2CCC(NC(=O)CCC3CCCO3)CC2)nc(C)n1` (stereo not given) was -5.62%.

Turning to `Cc1nc(C)c(CN(C)C2CCN(C(=O)OC(C)(C)C)CC2)s1`, the cytotoxicity at 70.5 h was -7.19%. The value for `CC(C(=O)NCCc1cccs1)N1CCC(n2ccnc2)CC1` (stereo not given) was -1.16%; that for `COCC(NC(=O)c1ccc(O)nc1)c1ccc(C)o1` (stereo not given) was 0.572%; that for `CN(CCOCC1CC1)C(=O)Cn1cccc(C(F)(F)F)c1=O` was -1.06%. The value for `CCCN(CCC)S(=O)(=O)c1cc(NC(C)=O)ccc1C` was 4.44%; that for `Cc1nn(C)c(C)c1CC(=O)NCc1ccnc(OC2CCCC2)c1` was -5.31%; that for `COc1ccnc(N(C)Cc2ccco2)n1` was 10.4%. The value for `CC(C)(C)OCCN(Cc1cccc(O)c1)C1CCC(O)CC1` (stereo not given) was -3.74%; that for `CN(C(=O)CN(Cc1cccc(O)c1)C1CCC(O)CC1)C1CC1` (stereo not given) was -6.65%. As to `CN1CCN(CCCN(C)S(=O)(=O)CC2CCCCC2)CC1`, the cytotoxicity at 70.5 h was -3.5%.

Take `C[S+]([O-])c1ccc(NC(=O)CC2=CCCCC2)cc1` (stereo not given): the cytotoxicity at 70.5 h was -3.55%. The value for `COc1ccc(CN2CCNC(=O)CC2)cc1SC(F)(F)F` was 1.64%; that for `CCOCC(=O)NCC(C)(O)c1cc(C)oc1C` (stereo not given) was -0.44%.

Regarding `CC(Cn1ccnc1)NC(=O)NCCN1CCc2ccccc2C1` (stereo not given), the cytotoxicity at 70.5 h is 0.814%. The value for `CC(Cn1cccn1)NC(=O)NCCCN1CCCCCC1=O` (stereo not given) was 0.306%; that for `CCOC1CCN(CCc2nc(-c3cccc(Cl)c3)no2)CC1` was 16.1%.

Consider `COCC(O)CN(C)C(=O)c1cccc(-c2csc(C)n2)c1` (stereo not given), for which the cytotoxicity at 70.5 h was determined as 1.21%. For the compound `Cc1cc(C(C)(O)CNC(=O)c2ccc(Br)o2)c(C)o1` (stereo not given), the cytotoxicity at 70.5 h is -0.275%. With `CCOc1ccc(CN2C(=O)CC(CC)(CC)C2=O)nc1`, the cytotoxicity at 70.5 h was 0.923%. For the compound `Cc1cc(C(C)(O)CNC(=O)CCOCC(C)C)c(C)o1` (stereo not given), the cytotoxicity at 70.5 h is 0.738%. On to `CCCN(C)S(=O)(=O)NC(=O)c1ccc(CC)o1`, for which the cytotoxicity at 70.5 h was 0.645%. On to `CC(Cn1cccn1)NC(=O)NCCN1CCc2ccccc2C1` (stereo not given), for which the cytotoxicity at 70.5 h is 0.199%. With `CCc1cc(CNC(=O)N2Cc3ccccc3N(C)CC2C)[nH]n1` (stereo not given), the cytotoxicity at 70.5 h is -0.192%.

Take `CC(C(=O)NC(C)(C)C)N1CCC(C(=O)Nc2cnccn2)CC1` (stereo not given): the cytotoxicity at 70.5 h was -8.75%. As for `Cc1cccnc1NC(=O)C1CCN(C(C)C(=O)NC(C)(C)C)CC1` (stereo not given), the cytotoxicity at 70.5 h was -10.6%. In the case of `Cc1noc(C)c1CN(C)C(=O)NC(C)c1cccs1` (stereo not given), the cytotoxicity at 70.5 h was 7.59%. Take `CCc1ccc(-c2nn3c(nc2=O)-c2ccccc2NC3C(=O)O)cc1` (stereo not given): the cytotoxicity at 70.5 h is -10.4%. The value for `COc1cc(C)c(C(C)Nc2ncc(C(N)=O)cc2Cl)cc1OC` (stereo not given) was -12.8%; that for `O=C(CSc1nnc[nH]1)NCc1cccs1` was -2.74%.

On to `Cc1ccc(NC(=O)CS(=O)(=O)NC2CCC(C)CC2)nc1` (stereo not given), for which the cytotoxicity at 70.5 h is -2.47%. The value for `CC1CCC(NS(=O)(=O)CC(=O)Nc2ccc(N3CCCC3)cn2)CC1` (stereo not given) was -5.53%. The value for `CC(CNS(=O)(=O)CCCC#N)c1ccsc1` (stereo not given) was -3.18%; that for `Cc1csc(CN(C)C(=O)Nc2cc(F)cc(N3CCCC3)c2)n1` was -11.9%. Turning to `COc1ccc(Br)cc1CCC(=O)N1CCC(O)CC1`, the cytotoxicity at 70.5 h was -4.79%.

For the compound `CC1CCC(NS(=O)(=O)CC(=O)Nc2ccccc2N2CCCC2)CC1` (stereo not given), the cytotoxicity at 70.5 h was -1.66%.

As for `Cc1cc(NC(=O)Cc2ccccc2O)c[nH]c1=O`, the cytotoxicity at 70.5 h was -13.3%. The value for `Cc1cc(NC(=O)Cc2ccccc2O)cnc1N1CCCCC1` was -12.3%; that for `COc1c(CNC2(c3ccc(Cl)cc3)CCC2)c(C)nn1C` was 5.64%.

For `CCOCCC(=O)N(C)c1ccc(F)c(Cl)c1`, the cytotoxicity at 70.5 h is -7.99%.

With `COc1ccc(Br)cc1CC(=O)N1CCCC1`, the cytotoxicity at 70.5 h is -5.85%. The value for `Cc1cccc(C(C)CNS(=O)(=O)CCCC#N)c1` (stereo not given) was -8.11%. The value for `Cc1[nH]ncc1C(=O)N(CC(C)C)CC(O)c1ccc(F)cc1` (stereo not given) was 14.2%. The value for `COc1cccc(COCC(=O)NC(C)c2nnc3n2CCC3)c1` (stereo not given) was 1.6%; that for `CCN(C(=O)c1ccc2c(c1)OCO2)C1CC(=O)NC1=O` (stereo not given) was -6.4%.

For `O=C(Nc1ccccc1F)C1CSCN1C(=O)CCc1ccco1` (stereo not given), the cytotoxicity at 70.5 h was -8.52%. The value for `COc1cc(-n2cccc2)c(Cl)cc1C(=O)NS(C)(=O)=O` was 6%; that for `CS(=O)(=O)NCCNC(=O)Cc1ccc(Br)s1` was -3.17%. On to `c1csc(N2CCN(c3nccn4cnnc34)CC2)n1`, for which the cytotoxicity at 70.5 h is -3.57%. The value for `CC(C)N(C(=O)CCc1ccco1)C1CCOCC1` was -9.28%; that for `COc1ccc(CCC(=O)N(C(C)C)C2CCOCC2)cc1` was -6.93%. The value for `Cc1ncc(CNC(=O)NC2CCN(C3CCCC3)CC2)s1` was -6.29%; that for `Cc1sc(CS(C)(=O)=O)nc1-c1ccc(Cl)cc1` was 14.3%; that for `Cc1nc(S(=O)(=O)N2CCSC3(CCCCC3)C2)cn1C` was -4%. The value for `Cc1nc(S(=O)(=O)N2CCC3(CCCCC3)C2)cn1C` was -1.45%; that for `CCc1cnc(CNC(=O)NC2CCN(C3CCCC3)CC2)s1` was 14%. As for `CC(C)CSCCCNC(=O)C1CCOCC1`, the cytotoxicity at 70.5 h is -5.98%. The value for `Cc1sc(CNS(N)(=O)=O)nc1-c1ccc(Cl)cc1` was -2.62%; that for `O=C(c1c(O)cnc2ccccc12)N1CCCSCC1` was -1.19%. Turning to `CC(C)CN(CC(O)c1ccc(F)cc1)C(=O)c1csnn1` (stereo not given), the cytotoxicity at 70.5 h is 14.1%.

For the origin of these results see ChEMBL document CHEMBL3507680, “University of Dundee, Gates Library screen for HepG2 cell viability”.
